Data from patent US12589092B2, “Polycyclic compound acting as kinase inhibitor” (HANGZHOU INNOGATE PHARMA CO., LTD., priority 2020, dated 2026).
pIC50: −log10 of the molar value. Like-named read-outs stand apart in the source and are kept apart here.

Assays:
CDK2/CycA2 = CDK2/CycA2 (Homo sapiens, UniProt P24941); assay: CDK2 kinase activity inhibition assay (caliper mobility shift); format: biochemical; conditions: CDK2/CycA2 12 nM, ATP 39 μM; read-out: CDK2 kinase inhibitory activity (IC50)
Method: (§1) 1) CDK2, CDK4 and CDK6 Kinase Activity Inhibition Assay
(§2) In vitro enzymatic activity of the CDK isoforms CDK2/CycA2, CDK4/CycD3 and CDK6/cycD3 were measured using caliper mobility shift assay. Dissolve the compounds in DMSO and dilute them with corresponding kinase buffer (CDK2/CycA2 and CDK6/CycD3 were assayed with buffer conditions of 50 mM HEPES (pH 7.5), 10 mM MgCl2, 0.0015% Brij-35 and 2 mM dithiothreitol; CDK4/CycD3 was assayed with buffer condition of 20 mM HEPES (pH 7.5), 10 mM MgCl2, 0.01% Triton X-100 and 2 mM dithiothreitol). Add 5 μl of compound (10% DMSO) with 5 times the final concentration of the reaction to a 384-well plate. […] Collect conversion data on Caliper EZ Reader II (Caliper Life Sciences). Convert the conversion rate into inhibition rate data (% inhibition rate=(max−conversion rate)/(max−min)*100). […] Draw a curve with the concentration and inhibition rate of the compound as abscissa and ordinate, and use XLFit excel add-in version 4.3.1 software to fit the curve and calculate IC50.

CDK5/p35NCK = CDK5/p35NCK (Homo sapiens, UniProt Q00535); assay: CDK5 kinase activity inhibition assay (ADP-Glo); format: biochemical; conditions: read-out: CDK5 kinase inhibitory activity (IC50)
Method: (§3) 3) CDK5, CDK9 and CDK16 Kinase Activity Inhibition Assay
(§4) CDK5/p35NCK, CDK9/CycT1 and CDK16/CycY protein kinase activities were determined using the ADP-Glo Kinase Assay. Dilute the positive compound and the test compound (10 mM stock solution) 25-fold with 100% DMSO, make a 4-fold serial dilution in a 96-well dilution plate, and add 1 μL of the compound to 49 μL of kinase reaction buffer (1 mM Tris, 20 mM MgCl2, 0.10% BSA and 0.5 mM DTT) on a microplate shaker for 20 min. Transfer 2 μL of 2× kinase to the 384-well reaction plate, add 1 μL of the test compound to the 384-well reaction plate, centrifuge at 1000 rpm/min for 1 min, and incubate at 25° C. for 10 min. Transfer 1 μL of the 4× substrate mix to the 384-well reaction plate, centrifuge at 1000 rpm/min for 1 min, and incubate at 25° C. for 60 min. Transfer 4 μL of ADP-Glo to the 384-well reaction plate to centrifuge at 1000 rpm/min for 1 min, and incubate at 25° C. for 40 min. Transfer 8 μL of detection solution to the 384-well reaction plate to centrifuge at 1000 rpm/min for 1 min, and incubate at 25° C. for 40 min. The RLU (Relative luminescence unit) signal was read using a Biotek multifunctional plate reader. Signal intensity is used to characterize the degree of kinase activity. Compound inhibition rate data: % inhibition rate=[1−(compound mean RLU−positive control mean RLU)/(negative control mean RLU−positive control mean RLU)]*100. Taking the log value of the concentration as the X axis and the percentage inhibition rate as the Y axis, the log(inhibitor) vs. response-Variable slope of the analysis software GraphPad Prism 5 was used to fit the dose-response curve to obtain the IC50 value of each compound on the enzyme activity.

CDK6/cycD3 = CDK6/cycD3 (Homo sapiens, UniProt Q00534); assay: CDK6 kinase activity inhibition assay (caliper mobility shift); format: biochemical; conditions: CDK6/cycD3 15 nM, ATP 800 μM; read-out: CDK6 kinase inhibitory activity (IC50)
Method: as §1, §2

CDK9/CycT1 = CDK9/CycT1 (Homo sapiens, UniProt P50750); assay: CDK9 kinase activity inhibition assay (ADP-Glo); format: biochemical; conditions: read-out: CDK9 kinase inhibitory activity (IC50)
Method: as §3, §4

[1] = Pharmacokinetic study in rats (intragastrical administration, plasma LC-MS/MS); conditions: male, SD, rat, po, 3 mg/kg
Method: Instruments: XEVO TQ-S LC/MS instrument produced by Waters. All measurement data is collected and processed by Masslynx V4.1 software, and the data is calculated and processed by Microsoft Excel. Using WinNonLin 8.0 software, the statistical moment method was used to calculate the pharmacokinetic parameters. Mainly include kinetic parameters Tmax, T1/2, Cmax, AUClast etc. Column: ACQUITY UPLC BEH C18 (2.1 mm×50 mm, 1.7 μm); column temperature 40° C.; mobile phase A is water (0.1% formic acid), mobile phase B is acetonitrile, flow rate is 0.350 ml/min, gradient elution is adopted, the elution gradient is 0.50 min: 10% B; 1.50 min: 10% B; 2.30 min: 95% B; 2.31 min: 10% B; 3.00 min: stop. Injection volume: 5 μL.
Animals: 3 male SD rats with a weight range of 200-220 g. After purchase, they will be kept in the laboratory of the Experimental Animal Center for 2 days and then used. They will be fasted for 12 hours predose and 4 hours after dosing. Drinking water is free during the test. After the rats were gavage, blood samples were taken according to the established time point.
Solvent: 0.5% Methylcellulose (aqueous solution containing 0.4% Tween 80 and 1% ethanol). Preparation of the solution for intragastrical administration: accurately weigh the compound, add it to the solvent, and use ultrasound at room temperature for 5 minutes to completely dissolve the drug, and prepare a 0.3 mg/ml medicinal solution.
A single administration was also used to study the pharmacokinetics of the drug sample in rats.
After intragastrical administration, blood was taken from the orbit at 0.25, 0.5, 1, 2, 4, 9, 12 and 24 hours, and placed in a plastic centrifuge tube pretreated with sodium heparin. After centrifugation, the supernatant plasma was used for LC-MS/MS analysis.
Accurately weigh the compounds to prepare different concentrations, perform quantitative analysis on mass spectrometry to establish a standard curve, and then test the concentration of the above-mentioned compound in the plasma to obtain the compound concentration at different time points. All measurement data are collected and processed by relevant software, and the statistical moment method is used to calculate the pharmacokinetic parameters (mainly including kinetic parameters Tmax, T1/2, Cmax, AUClast etc).

CDK16/CycY = CDK16/CycY (Homo sapiens, UniProt Q00536); assay: CDK16 kinase activity inhibition assay (ADP-Glo); format: biochemical; conditions: read-out: CDK16 kinase inhibitory activity (IC50)
Method: as §3, §4

TRKA = TRKA (Homo sapiens, UniProt P04629); assay: TRKA kinase activity inhibition assay (caliper mobility shift); format: biochemical
Method: 2) TRKA Kinase Activity Inhibition Assay
TRKA protein kinase activity was measured by caliper mobility shift assay. Compounds were dissolved in DMSO to make up 10 mM stock solutions. Prepare 1× kinase reaction buffer to serially dilute compounds. 250 nL 100× final concentration of the test compounds were transferred to destination plate 3573 by dispenser Echo 550. Prepare a 2.5× final concentration of kinase solution with 1× kinase buffer. Add 10 μL of 2.5× final kinase solution to compound wells and positive control wells; add 10 μL of 1× kinase buffer to negative control wells. Centrifuge at 1000 rpm for 30 s, shake and mix the reaction plate and incubate at room temperature for 10 min. Prepare a mixture of ATP and kinase substrate solution at 5/3× final concentration with 1× kinase buffer. The reaction was initiated by adding 15 μL of the mixed solution. Centrifuge the 384-well plate at 1000 rpm for 30 s, shake and mix well, and incubate at room temperature for the corresponding time. Add 30 μL of stop solution to stop the kinase reaction, centrifuge at 1000 rpm for 30 s, mix by shaking, and read the conversion rate data with Caliper EZ Reader. Convert conversion to inhibition data (% inhibition=(max DMSO well conversion−sample well conversion)/(max DMSO well conversion−min negative control conversion)*100). Wherein max refers to the conversion rate of the DMSO control, and min refers to the conversion rate of the non-enzymatic control. Draw a curve with the concentration and inhibition rate of the compound as abscissa and ordinate, and use XLFit excel add-in version 4.3.1 software to fit the curve and calculate IC50.

CDK4/CycD3 = CDK4/CycD3 (Homo sapiens, UniProt P11802); assay: CDK4 kinase activity inhibition assay (caliper mobility shift); format: biochemical; conditions: CDK4/CycD3 10 nM, ATP 221 μM; read-out: CDK4 kinase inhibitory activity (IC50)
Method: as §1, §2

[2] = read-out: TRKA kinase inhibitory activity (IC50)

Sequence of CDK4/CycD3 (P11802 whole entry): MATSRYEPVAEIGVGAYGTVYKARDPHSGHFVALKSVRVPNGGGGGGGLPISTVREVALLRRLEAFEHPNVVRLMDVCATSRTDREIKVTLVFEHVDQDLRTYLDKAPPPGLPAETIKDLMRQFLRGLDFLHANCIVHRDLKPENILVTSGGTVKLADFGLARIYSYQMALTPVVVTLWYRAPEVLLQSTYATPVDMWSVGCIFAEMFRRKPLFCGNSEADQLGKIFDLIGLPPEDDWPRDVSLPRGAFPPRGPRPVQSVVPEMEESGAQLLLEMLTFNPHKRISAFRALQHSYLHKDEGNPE
Sequence of CDK4/CycD3 (P30281 whole entry partner): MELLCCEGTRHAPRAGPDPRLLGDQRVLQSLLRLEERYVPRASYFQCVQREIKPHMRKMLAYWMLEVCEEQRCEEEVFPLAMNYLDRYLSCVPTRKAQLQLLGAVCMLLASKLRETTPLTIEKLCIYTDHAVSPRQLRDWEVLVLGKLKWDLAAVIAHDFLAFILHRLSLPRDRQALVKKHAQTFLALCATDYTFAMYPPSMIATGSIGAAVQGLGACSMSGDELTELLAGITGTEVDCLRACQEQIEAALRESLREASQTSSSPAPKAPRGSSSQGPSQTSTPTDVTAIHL
Sequence of TRKA (P04629 33-796): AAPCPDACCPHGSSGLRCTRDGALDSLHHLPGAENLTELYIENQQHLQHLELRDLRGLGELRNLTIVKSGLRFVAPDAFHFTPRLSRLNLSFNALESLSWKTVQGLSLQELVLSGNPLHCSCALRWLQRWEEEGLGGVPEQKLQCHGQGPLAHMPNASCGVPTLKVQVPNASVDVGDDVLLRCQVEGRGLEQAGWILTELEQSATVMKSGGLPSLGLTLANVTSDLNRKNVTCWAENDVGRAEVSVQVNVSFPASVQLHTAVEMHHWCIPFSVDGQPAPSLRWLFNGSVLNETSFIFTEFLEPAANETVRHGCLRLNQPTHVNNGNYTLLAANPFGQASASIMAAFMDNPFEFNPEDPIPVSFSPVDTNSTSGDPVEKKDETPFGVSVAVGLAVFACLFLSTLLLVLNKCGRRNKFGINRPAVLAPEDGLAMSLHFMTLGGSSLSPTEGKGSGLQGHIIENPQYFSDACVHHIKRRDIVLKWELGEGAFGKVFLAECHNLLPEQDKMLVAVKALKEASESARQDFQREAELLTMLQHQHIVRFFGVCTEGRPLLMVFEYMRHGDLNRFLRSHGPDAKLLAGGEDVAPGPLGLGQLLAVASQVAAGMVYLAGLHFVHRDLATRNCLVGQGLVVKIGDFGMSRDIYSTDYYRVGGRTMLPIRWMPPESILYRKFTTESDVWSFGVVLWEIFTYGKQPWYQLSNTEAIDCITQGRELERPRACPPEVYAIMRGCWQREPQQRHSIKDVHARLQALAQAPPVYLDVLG
Sequence of CDK5/p35NCK (Q00535 whole entry): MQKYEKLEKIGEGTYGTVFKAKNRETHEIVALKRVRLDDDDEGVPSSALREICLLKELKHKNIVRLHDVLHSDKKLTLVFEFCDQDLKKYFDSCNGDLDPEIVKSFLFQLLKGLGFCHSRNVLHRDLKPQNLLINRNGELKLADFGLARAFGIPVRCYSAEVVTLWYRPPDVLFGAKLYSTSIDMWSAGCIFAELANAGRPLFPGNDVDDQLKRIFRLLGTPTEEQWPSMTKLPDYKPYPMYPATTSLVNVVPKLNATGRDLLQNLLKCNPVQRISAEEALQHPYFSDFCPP
Sequence of CDK5/p35NCK (Q15078 whole entry partner): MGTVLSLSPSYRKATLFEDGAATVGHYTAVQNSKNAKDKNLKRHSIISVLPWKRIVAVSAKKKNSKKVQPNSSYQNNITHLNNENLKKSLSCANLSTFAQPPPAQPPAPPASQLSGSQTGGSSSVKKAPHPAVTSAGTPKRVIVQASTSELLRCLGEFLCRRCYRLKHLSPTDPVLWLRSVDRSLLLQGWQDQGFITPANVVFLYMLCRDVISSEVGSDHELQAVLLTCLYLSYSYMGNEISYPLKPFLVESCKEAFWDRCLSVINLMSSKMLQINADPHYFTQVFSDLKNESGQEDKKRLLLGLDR
Sequence of CDK16/CycY (Q00536 whole entry): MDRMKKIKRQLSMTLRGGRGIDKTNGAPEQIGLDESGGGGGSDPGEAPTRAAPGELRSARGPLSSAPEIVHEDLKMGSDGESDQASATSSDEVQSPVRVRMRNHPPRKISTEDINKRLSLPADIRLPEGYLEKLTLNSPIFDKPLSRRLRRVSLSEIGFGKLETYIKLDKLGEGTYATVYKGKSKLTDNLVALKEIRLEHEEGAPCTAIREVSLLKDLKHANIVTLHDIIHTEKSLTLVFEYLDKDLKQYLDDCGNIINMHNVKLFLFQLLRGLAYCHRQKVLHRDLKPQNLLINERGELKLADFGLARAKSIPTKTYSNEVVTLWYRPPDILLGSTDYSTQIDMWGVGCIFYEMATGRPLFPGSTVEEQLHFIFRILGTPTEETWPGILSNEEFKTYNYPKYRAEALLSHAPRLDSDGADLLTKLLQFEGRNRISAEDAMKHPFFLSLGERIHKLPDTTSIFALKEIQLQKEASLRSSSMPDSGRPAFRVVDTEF
Sequence of CDK16/CycY (Q8ND76 whole entry partner): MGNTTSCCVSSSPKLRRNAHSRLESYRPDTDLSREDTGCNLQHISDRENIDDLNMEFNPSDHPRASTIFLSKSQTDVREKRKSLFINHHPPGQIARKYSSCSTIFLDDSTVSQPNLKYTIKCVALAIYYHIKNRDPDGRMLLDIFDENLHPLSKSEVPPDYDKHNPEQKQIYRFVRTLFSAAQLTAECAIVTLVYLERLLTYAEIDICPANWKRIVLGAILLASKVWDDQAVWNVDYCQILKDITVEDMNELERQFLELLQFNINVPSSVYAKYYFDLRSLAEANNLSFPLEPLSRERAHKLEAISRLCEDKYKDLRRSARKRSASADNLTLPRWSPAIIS
Sequence of CDK9/CycT1 (P50750 whole entry): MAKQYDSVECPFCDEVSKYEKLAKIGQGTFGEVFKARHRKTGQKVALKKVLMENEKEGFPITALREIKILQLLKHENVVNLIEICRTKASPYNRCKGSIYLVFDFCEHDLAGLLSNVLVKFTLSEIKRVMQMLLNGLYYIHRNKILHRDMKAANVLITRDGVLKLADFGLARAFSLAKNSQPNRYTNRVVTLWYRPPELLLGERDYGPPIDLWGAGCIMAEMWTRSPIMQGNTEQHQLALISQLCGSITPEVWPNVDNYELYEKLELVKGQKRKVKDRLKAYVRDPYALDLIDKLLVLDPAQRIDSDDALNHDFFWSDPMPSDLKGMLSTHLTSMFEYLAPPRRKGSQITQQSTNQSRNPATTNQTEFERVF
Sequence of CDK9/CycT1 (O60563 whole entry partner): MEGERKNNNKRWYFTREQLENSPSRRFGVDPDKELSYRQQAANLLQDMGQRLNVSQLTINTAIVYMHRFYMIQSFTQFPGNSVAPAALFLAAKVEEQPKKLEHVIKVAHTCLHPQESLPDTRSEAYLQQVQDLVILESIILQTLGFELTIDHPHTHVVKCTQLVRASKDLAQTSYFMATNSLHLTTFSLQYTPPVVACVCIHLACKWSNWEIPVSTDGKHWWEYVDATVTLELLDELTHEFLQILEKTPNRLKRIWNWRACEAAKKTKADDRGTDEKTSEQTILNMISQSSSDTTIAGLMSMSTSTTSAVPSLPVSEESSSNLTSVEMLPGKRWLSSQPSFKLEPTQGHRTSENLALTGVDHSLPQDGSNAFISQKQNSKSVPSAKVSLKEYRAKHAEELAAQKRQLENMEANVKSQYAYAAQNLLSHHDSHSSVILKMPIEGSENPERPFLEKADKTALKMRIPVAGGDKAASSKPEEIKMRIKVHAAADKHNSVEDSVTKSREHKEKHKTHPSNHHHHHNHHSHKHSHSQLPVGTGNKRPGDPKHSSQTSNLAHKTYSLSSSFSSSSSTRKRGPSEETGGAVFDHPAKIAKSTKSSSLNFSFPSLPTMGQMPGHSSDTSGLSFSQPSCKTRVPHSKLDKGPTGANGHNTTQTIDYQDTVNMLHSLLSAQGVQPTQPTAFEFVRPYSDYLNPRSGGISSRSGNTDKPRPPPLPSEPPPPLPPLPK
Sequence of CDK6/cycD3 (Q00534 whole entry): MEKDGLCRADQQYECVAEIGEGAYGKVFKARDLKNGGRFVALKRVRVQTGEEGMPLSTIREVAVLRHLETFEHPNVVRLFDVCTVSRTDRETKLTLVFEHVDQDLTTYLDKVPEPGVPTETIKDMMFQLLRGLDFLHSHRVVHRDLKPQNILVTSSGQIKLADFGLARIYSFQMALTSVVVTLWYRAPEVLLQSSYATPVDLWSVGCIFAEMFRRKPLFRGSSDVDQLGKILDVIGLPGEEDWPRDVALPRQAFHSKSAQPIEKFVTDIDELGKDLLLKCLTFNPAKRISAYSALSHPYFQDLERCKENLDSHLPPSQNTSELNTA
Sequence of CDK6/cycD3 (P30281 whole entry partner): as the sequence (P30281 whole entry partner) above

Row | SMILES | pIC50 (CDK2/CycA2) | pIC50 (CDK5/p35NCK) | pIC50 (CDK6/cycD3) | pIC50 (CDK9/CycT1) | AUC(0-t) [1] [ng·h/mL] | Cmax [1] [ng/mL] | Tmax [1] [h] | half-life [1] [h] | pIC50 (CDK16/CycY) | pIC50 (TRKA; [2]) | pIC50 (CDK4/CycD3) | pIC50 (TRKA)
1 | CC(=O)c1c(C)c2cnc(Nc3ccc4c(c3)OC[C@H]3CN(C5CCN(C)CC5)CCN43)nc2n(C2CCCC2)c1=O [Compound 2R] | > 7.00 |  | > 8.00 |  |  |  |  |  |  |  | > 8.00 | > 8.00
2 | CC(=O)c1c(C)c2cnc(Nc3cc(F)c4c(c3)OC[C@@H]3CN(C5CCN(C)CC5)CCN43)nc2n(C2CCCC2)c1=O [Compound 9S] | > 6.30 |  | > 7.30 |  | 697 | 42.5 | 12 | 15.6 |  |  | > 8.00 | 
3 | CC(=O)c1c(C)c2cnc(Nc3ccc4c(c3)OC[C@@H]3CN(C5CC(F)(F)C5)CCN43)nc2n(C2CCCC2)c1=O [Compound 15S] | > 6.00 |  |  |  |  |  |  |  |  | > 7.00 | > 7.30 | 
4 | CC(=O)c1c(C)c2cnc(Nc3ccc4c(c3)OC[C@@H]3CN(C5CCN(CC(F)(F)F)CC5)CCN43)nc2n(C2CCCC2)c1=O [Compound 16S] | > 6.30 |  |  |  |  |  |  |  |  |  | > 8.00 | 
5 | CC(=O)c1c(C)c2cnc(Nc3ccc4c(c3)OC[C@@H]3CN(C5CCC5)CCN43)nc2n(C2CCCC2)c1=O [Compound 18S] | > 6.30 |  |  |  |  |  |  |  |  |  | > 8.00 | 
6 | CC(=O)c1c(C)c2cnc(Nc3ccc4c(c3)N3CCN(C5CCN(C)CC5)C[C@H]3CO4)nc2n(C2CCCC2)c1=O [Compound 19S] | > 6.30 |  |  |  |  |  |  |  |  |  | > 7.00 | 
7 | CC(=O)c1c(C)c2cnc(Nc3ccc4c(c3)N3CCN(C5CCNCC5)C[C@H]3CO4)nc2n(C2CCCC2)c1=O [Compound 20S] | > 6.30 |  |  |  |  |  |  |  |  |  |  | 
8 | CC(=O)c1c(C)c2cnc(Nc3ccc4c(c3)N3CCN(C5CCN(C(C)=O)CC5)C[C@H]3CO4)nc2n(C2CCCC2)c1=O [Compound 21S] | > 6.30 |  |  |  |  |  |  |  |  |  |  | 
9 | CC(=O)c1c(C)c2cnc(Nc3ccc4c(c3)OCC3CNCCN43)nc2n(C2CCCC2)c1=O (centres unmarked) [Ref-B, reference compound] |  |  |  |  | 108 | 13.9 | 3.33 | 6.71 |  |  |  | 

Second part, led by results:

Row | pIC50 (CDK2/CycA2) | pIC50 (CDK5/p35NCK) | pIC50 (CDK6/cycD3) | pIC50 (CDK9/CycT1) | AUC(0-t) [1] [ng·h/mL] | Cmax [1] [ng/mL] | Tmax [1] [h] | half-life [1] [h] | pIC50 (CDK16/CycY) | pIC50 (TRKA; [2]) | pIC50 (CDK4/CycD3) | SMILES | pIC50 (TRKA)
10 | > 7.00 | > 7.00 | > 7.70 | > 7.30 | 274 | 43.4 | 2 | 2.96 | > 7.00 | > 8.00 | > 8.00 | CC(=O)c1c(C)c2cnc(Nc3ccc4c(c3)OC[C@H]3CN(C5CCOCC5)CCN43)nc2n(C2CCCC2)c1=O [Compound 1R] | 
11 | > 7.00 |  | > 7.70 |  | 192 | 37.3 | 3 | 6.41 |  |  | > 8.00 | CC(=O)c1c(C)c2cnc(Nc3ccc4c(c3)OC[C@@H]3CN(C5CCOCC5)CCN43)nc2n(C2CCCC2)c1=O [Compound 1S] | 
12 | > 7.00 |  | > 8.00 |  |  |  |  |  |  |  | > 8.00 | CC(=O)c1c(C)c2cnc(Nc3ccc4c(c3)OC[C@H]3CN(C5CCNCC5)CCN43)nc2n(C2CCCC2)c1=O [Compound 3R] | 
13 | > 7.00 | > 7.00 | > 8.00 | > 7.70 | 1230 | 85.7 | 5.33 | 5.68 | > 7.30 | > 8.00 | > 8.00 | CC(=O)c1c(C)c2cnc(Nc3ccc4c(c3)OC[C@@H]3CN(C5CCNCC5)CCN43)nc2n(C2CCCC2)c1=O [Compound 3S] | 
14 | > 7.00 | > 7.00 | > 8.00 | > 7.70 | 3770 | 250 | 12 | 10.7 | > 7.00 | > 8.00 | > 8.00 | CCN1CCC(N2CCN3c4ccc(Nc5ncc6c(C)c(C(C)=O)c(=O)n(C7CCCC7)c6n5)cc4OC[C@@H]3C2)CC1 [Compound 4S] | 
15 | > 7.00 |  | > 8.00 |  | 2480 | 266 | 6 | 2.18 |  |  | > 8.00 | CC(=O)c1c(C)c2cnc(Nc3ccc4c(c3)OC[C@@H]3CN(C5CCN(C(C)=O)CC5)CCN43)nc2n(C2CCCC2)c1=O [Compound 5S] | 
16 | > 7.00 |  | > 8.00 |  | 662 | 54.9 | 6.67 | 4.31 |  |  | > 8.00 | CC(=O)c1c(C)c2cnc(Nc3ccc4c(c3)OC[C@@H]3CN(C5CCN(C6CC6)CC5)CCN43)nc2n(C2CCCC2)c1=O [Compound 6S] | 
17 | > 6.30 |  | > 7.00 |  |  |  |  |  |  |  | > 7.70 | CC(=O)c1c(C)c2cnc(Nc3cc(C)c4c(c3)OC[C@@H]3CN(C5CCN(C)CC5)CCN43)nc2n(C2CCCC2)c1=O [Compound 8S] | 
18 | > 7.00 |  | > 7.70 |  | 3000 | 424 | 2 | 2.61 |  | > 8.00 | > 8.00 | CC(=O)c1c(C)c2cnc(Nc3ccc4c(c3)OC[C@@H]3CN(C5CN(C(C)=O)C5)CCN43)nc2n(C2CCCC2)c1=O [Compound 11S] | 
19 | > 7.00 |  | > 8.00 |  |  |  |  |  |  |  | > 8.00 | CC(=O)c1c(C)c2cnc(Nc3ccc4c(c3)OC[C@@H]3CN(C5CN(C6CC6)C5)CCN43)nc2n(C2CCCC2)c1=O [Compound 12S] | 
20 | > 7.00 |  | > 7.70 |  | 860 | 169 | 1.83 | 1.95 |  |  | > 8.00 | CC(=O)c1c(C)c2cnc(Nc3ccc4c(c3)OC[C@@H]3CN(C5COC5)CCN43)nc2n(C2CCCC2)c1=O [Compound 13S] | 
21 | > 7.00 |  | > 7.70 |  | 2030 | 442 | 1.33 | 1.84 |  |  | > 8.00 | CC(=O)c1c(C)c2cnc(Nc3ccc4c(c3)OC[C@@H]3CN(C5CN(S(C)(=O)=O)C5)CCN43)nc2n(C2CCCC2)c1=O [Compound 14S] | 
22 | > 7.00 |  |  |  |  |  |  |  |  |  | > 8.00 | CC(=O)c1c(C)c2cnc(Nc3ccc4c(c3)OC[C@@H]3CN(C5CCN(CC#N)CC5)CCN43)nc2n(C2CCCC2)c1=O [Compound 17S] | 
